Measurements taken from US20260182575A1, “MOLECULES HAVING PESTICIDAL UTILITY AND INTERMEDIATES AND PROCESSES RELATED THERETO” (CORTEVA AGRISCIENCE LLC, priority 2022, published 2026).

Assays:
Type in all cases: in vivo
[1] = test system: Corn Earworm (Helicoverpa zea, HELIZE, CEW); experiment: Bioassay 4: corn earworm, artificial diet, 128-cell tray; conditions: for Average % Control AI: AI alone; for Average % Control F1: F1 alone
In short: (§1)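 Test solutions (0.0000004–0.04% w/v, i.e. 0.00005–5 μg/cm² on diet) were pipetted onto artificial lepidopteran diet and one 2nd-instar larva was placed per cell, 8 replicates per species, held at ~26° C. Live larvae were counted after 5 days; percent control used Abbott's correction against a solvent check.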

[2] = test system: Fall Armyworm (Spodoptera frugiperda, LAPHFR, FAW); experiment: Bioassay 4: fall armyworm, artificial diet, 128-cell tray; conditions: AI alone
In short: as §1

[3] = test system: Soybean Looper (Chrysodeixis includens, PSEPIN, SBL); experiment: Bioassay 4: soybean looper, artificial diet, 128-cell tray; conditions: AI alone
In short: as §1

[4] = test system: Brown Planthopper (Nilaparvata lugens, NILALU, BPH); experiment: Bioassay 6: brown planthopper, sprayed rice seedlings; conditions: AI alone, AI Rate 0.049 g/ha, 6 days
Method: At these rates, F1 and the individual active ingredients were tested at a ratio of 1:1. […] F1 and triflumezopyrim were tested at a ratio of 16:1. Test solutions were prepared containing F1, the individual active ingredients, and mixtures of F1 with each of the active ingredients. Test solutions were prepared by weighing 5 mg of each test chemistry (either alone or in combination depending on the treatment) into a 25 mL glass vial. Next, 1 mL of acetone was added to each vial to dissolve the test chemistries, followed by 19 mL of water with 0.125% Tween 20 adjuvant. This test solution represented the 50 g/ha treatment, which was then serially diluted four-fold to create the three lower rates of 12.5, 3.125, and 0.78 g/ha. Triflumezopyrim was prepared in a similar manner, but two additional serial dilutions were conducted to create solutions representing 6 rates of 12.5, 3.125, 0.78, 0.19, 0.049, and 0.012 g/ha. The higher two doses were discarded, and the four lower doses were used for testing. Each rate was replicated four times, and solvent blanks were used as control treatments.
Five (5) rice seedlings (10-12 days old) planted in 3-inch pots were used as test plants. Rice seedlings were grown in soil and the soil was covered with a 2% agar solution. The test solutions were applied to test plants using a Devries laboratory research sprayer, set to spray at 200 liters per hectare (L/ha) using a TeeJet hollow cone nozzle. Following application, the rice seedlings were dried for 1 hour, after which a single clear plastic tube (2 inches in diameter×12 inches in height) was placed over the seedlings in each pot. The tube was pushed down into the agar to create a sealed test chamber. The agar prevented insects from hiding in the soil and made adult collection and grading easier. Ten to fifteen (10-15) 5th instar BPH nymphs were transferred to each test chamber using a vacuum aspirator. Immediately following BPH infestation, the test chamber was covered with a piece of grade 90 cheesecloth and secured with a rubber band, sealing the test chamber. The test chambers were held at 25° C. for 6 days, after which the total number of live insects was counted in each test chamber. Percent control was measured using Abbott's correction formula (W. S. Abbott, J. Econ. Entomol. 18 (1925), pp. 265-267) as follows:
where X=No. of live insects on solvent check and Y=No. of live insects in treated chambers. In Table B6 the “Expected % Control” was calculated using the method described in Colby S. R., Weeds, 1967, 15, 20-22. Bioassay 7: Corn Earworm (Helicoverpa zea, HELIZE, “CEW”), Fall Armyworm (Spodoptera frugiperda, LAPHFR, “FAW”), Beet Armyworm (Spodoptera exigua, LAPHEG, “BAW”),and Soybean Looper (Chrysodeixis includens, PSEPIN, “SBL”).

Cc1c(COC(=O)[C@@H]2[C@H](/C=C(\Cl)C(F)(F)F)C2(C)C)cccc1-c1ccccc1 (racemic) [Bifenthrin] was tested, and the “Average % Control AI” value ([1]; 0.000004 wt %) was 0.0%, the “Average % Control AI” value ([1]; 0.00004 wt %) was 0.0% and the “Average % Control AI” value ([2]; 0.000004 wt %) was 12.5%. The “Average % Control AI” value ([2]; 0.00004 wt %) was 12.5%, the “Average % Control AI” value ([3]; 0.000004 wt %) was 0.0% and the “Average % Control AI” value ([3]; 0.00004 wt %) was 0.0%.

In the case of C[C@]1(COC(=O)C2CC2)[C@@H]2C[C@H](O)[C@@]3(C)Oc4cc(-c5cccnc5)oc(=O)c4[C@H](O)[C@@H]3[C@@]2(C)CC[C@@H]1OC(=O)C1CC1 [Afidopyropen], the “Average % Control AI” value ([1]; 0.000004 wt %) is reported as 0.0%, the “Average % Control AI” value ([1]; 0.00004 wt %) is reported as 0.0% and the “Average % Control AI” value ([2]; 0.000004 wt %) is reported as 0.0%. For the same molecule, the “Average % Control AI” value ([2]; 0.00004 wt %) was 0.0%, the “Average % Control AI” value ([3]; 0.000004 wt %) was 0.0% and the “Average % Control AI” value ([3]; 0.00004 wt %) was 0.0%. For the same molecule, the “Average % Control AI” value [4] was 11.4%.

For Cc1ccc(COCC(F)(F)F)c(N2C(=O)CS/C2=N\C(=O)Nc2ccc(-c3ncn(-c4ccc(OC(F)(F)F)cc4)n3)cc2F)c1 [F1], the “Average % Control F1” value ([1]; 0.0000004 wt %) was 0.0% and the “Average % Control F1” value ([1]; 0.00004 wt %) was 75.0%.

With CON=CNC(=O)c1ccc(C2=NOC(c3cc(Cl)cc(Cl)c3)(C(F)(F)F)C2)cc1C (stereo not drawn) [Fluxametamide] the “Average % Control AI” value ([1]; 0.000004 wt %) was 0.0%, the “Average % Control AI” value ([1]; 0.00004 wt %) was 0.0% and the “Average % Control AI” value ([2]; 0.000004 wt %) was 12.5%. The “Average % Control AI” value ([3]; 0.000004 wt %) was 12.5% and the “Average % Control AI” value [4] was 42.3%.

With COC(=O)N(C(=O)N1CO[C@@]2(C(=O)OC)Cc3cc(Cl)ccc3C2=N1)c1ccc(OC(F)(F)F)cc1 [Indoxacarb] the “Average % Control AI” value ([1]; 0.000004 wt %) was 0.0%, the “Average % Control AI” value ([1]; 0.00004 wt %) was 0.0% and the “Average % Control AI” value ([1]; 0.0004 wt %) was 0.0%. The “Average % Control AI” value ([2]; 0.000004 wt %) was 0.0%, the “Average % Control AI” value ([2]; 0.00004 wt %) was 0.0% and the “Average % Control AI” value ([3]; 0.000004 wt %) was 0.0%. For the same molecule, the “Average % Control AI” value [4] was 1.2%.

For CC1=NNC(=O)N(/N=C/c2cccnc2)C1 [Pymetrozine], the “Average % Control AI” value ([1]; 0.000004 wt %) was 0.0%, the “Average % Control AI” value ([1]; 0.00004 wt %) was 0.0% and the “Average % Control AI” value ([2]; 0.000004 wt %) was 0.0%. The “Average % Control AI” value ([2]; 0.00004 wt %) was 0.0% and the “Average % Control AI” value ([3]; 0.000004 wt %) was 12.5%.

CN1COCN(Cc2cnc(Cl)s2)/C1=N\[N+](=O)[O-] [Thiamethoxam] was tested, and the “Average % Control AI” value ([1]; 0.000004 wt %) was 0.0%, the “Average % Control AI” value ([1]; 0.00004 wt %) was 0.0% and the “Average % Control AI” value ([2]; 0.000004 wt %) was 0.0%. The “Average % Control AI” value ([3]; 0.000004 wt %) was 0.0%.

With Chlorfenapyr the “Average % Control AI” value ([1]; 0.000004 wt %) was 0.0%, the “Average % Control AI” value ([1]; 0.00004 wt %) was 12.5% and the “Average % Control AI” value ([2]; 0.000004 wt %) was 0.0%. The “Average % Control AI” value ([2]; 0.00004 wt %) was 37.5%, the “Average % Control AI” value ([3]; 0.000004 wt %) was 25.0% and the “Average % Control AI” value ([3]; 0.00004 wt %) was 37.5%.
